Data on five compounds can be found in US20090062255A1, “TUMOR-TARGETING EVALUATION METHODOLOGY AND COMPOUNDS RELATED THERETO” (THALLION PHARMACEUTICALS INC., priority 2007, published 2009).

Like-named read-outs stand apart in the source and are kept apart here.

Broadly, the IC50 is the concentration that gives 50% inhibition. A higher IC50 goes with lower potency. Usually T/C stands for the result in the treated group divided by that in the control group, in per cent. As a reminder, the GI50 is the concentration that inhibits growth by half. A lower GI50 goes with more potent growth inhibition.

The test system of data set [1] is DN oligodendroglioma cell line. As to the kind of experiment: MTT cytotoxicity, DN cell line. The data set is classed as cell-based. The conditions noted are these: 96 h, Human. Here is the method:
The cytotoxic activity of Compound 1 was further evaluated using a panel of brain tumor cell lines. This study was performed in collaboration with INSERM (Grenoble, France). Tumor cells (5,000 to 10,000 cells per well depending on their doubling time) were plated in 96-well flat-bottom plates and incubated for 24 hours before treatment. Tumor cells were then incubated for 96 hours with seven different concentrations of Compound 1: […], 0.01, and 0.001 μM. The in vitro cytotoxic activity was determined by a standard MTT assay.

The test system of data set [2] is phosphorylation of Raf-1 and ERK1/2 (Ras-MAPK signaling pathway). As to the kind of experiment: Western blot of EGF-induced Raf-1 and ERK1/2 phosphorylation in tumor cells. The data set is classed as cell-based, human. The conditions noted are these: 10 μM. As for the experimental part: The effect of ECO-4601 on downstream events of Ras signaling was subsequently examined by monitoring the phosphorylation levels of Raf-1 and ERK1/2 by Western blot analysis. To study the effect of ECO-4601 on the Ras-MAPK signaling pathway, exponentially growing cells (human breast MCF-7 tumor cells, human breast MDA-MB-231 tumor cells, human glioma U 87-MG tumor cells and human prostate PC-3 tumor cells) were seeded onto 60 mm tissue culture dishes (0.5 to 0.8×10^6 cells per dish) for 24 h. The media was removed and cells were treated with 10 μM ECO-4601 in culture medium supplemented with 0.1% FBS for 30 min, 1 h, 4 h and 6 h, and subsequently exposed to EGF at 50 ng/mL for 10 min at 37° C. Control plates consisted of cells incubated in culture medium containing 0.1% FBS and 0.05% DMSO (vehicle) with or without EGF stimulation. At the end of each treatment, media was removed and cells rinsed with ice-cold PBS. Cells were then harvested by scraping and cell pellets were lysed in ice-cold RIPA buffer for 20 minutes on ice. Unsolubilized material was pelleted and discarded. The protein concentration of each lysate was quantified using the Bio-Rad protein assay (Bio-Rad Laboratories). Equivalent amounts of protein (20-30 μg protein) were separated on 10% or 12% SDS-PAGE under reducing conditions, transferred onto nitrocellulose membranes (0.2 μm; Bio-Rad Laboratories) and blotted as above with phospho-c-Raf (Ser338) and c-Raf (Cell Signaling Technology Inc., Boston, Mass.), phospho-p44/42 (Thr2O2/Tyr204, p-ERK1/2) and p44/42 (ERK1/2) MAP Kinases (Cell Signaling Technology Inc.) and GAPDH (SantaCruz Biotechnology Inc.).
Background: Immunoblotting shows a protein as a band on a membrane.

Data set [3] deals with T1, human MEK1 (Homo sapiens, UniProt Q02750).
T1 construct: purchased Upstate (Kinase Profiler Service; Dundee, UK)
Briefly: Upstate Kinase Profiler, MEK1. The data set is classed as biochemical. Here is the method: Unlike current Ras signalling pathway inhibitors, ECO-4601 is not a direct kinase inhibitor. This was documented by evaluating the effect of ECO-4601 on human EGFR, c-RAF, MEK1, MAPK1 (ERK1) and MAPK2 (ERK2) kinase-activity (Upstate Kinase Profiler™ Service; Dundee, UK). ECO-4601 was tested at 0.5 μM and 5 μM in a final volume of 25 μL according to standard protocols developed by Upstate Ltd. Briefly, purified recombinant human enzymes were incubated with 25 mM Tris pH 7.5 containing EGTA, a specific substrate and γ-^32P-ATP. The reaction was initiated with MgATP mix and incubated for 40 minutes at RT. The reaction was stopped by the addition of 5 μL of a 3% phosphoric acid solution; aliquots were spotted on filters and counted. Detailed procedures are available on the Millipore Upstate website.

Data set [4] deals with human MiaPaCa-2 tumors. Briefly: Human MiaPaCa-2 tumors in mice, antitumor efficacy. The data set is classed as in vivo. The conditions noted are these: 30 mg/kg SC, Q1D×5 for 3 wk, established MiaPaCa-2 tumors. As for the experimental part:
Mice bearing established (100 mm^3) human MiaPaCa-2 tumors were dosed with 30 mg/kg (Q1D×5 for 3 wk; SC administration). The positive control group was treated with gemcitabine at 60 mg/kg once a day on Monday and Thursday (TWx4). ECO-4601 as a single agent was statistically different from the vehicle control group (P ˜0.008) following SC daily dosing resulting in a T/C of 56% (FIG. 12).

The test system of data set [5] is MES-SA/DX5 (doxorubicin-resistant P-glycoprotein over-expressing variant). As to the kind of experiment: Growth inhibitory MTT assay, MES-SA/DX5. The conditions noted are these: 72 hours, treated over control. The data set is classed as cell-based, human. As for the experimental part: Growth inhibitory activity of ECO-4601 (Compound 1) and other dibenzodiazepinone analogs was evaluated on a panel of 4 human tumor cell lines: the human uterine sarcoma MES-SA and its doxorubicin-resistant P-glycoprotein over-expressing variant, MES-SA/DX5 as well as non-aggressive and highly aggressive human breast cell lines, MCF-7 and MDA-MB-231, respectively. These four cell lines were obtained from the American Type Culture Collection (Manassas, Va.) and cultured in RPMI plus 10% fetal bovine serum (FBS) and maintained at 37° C. with 5% CO2.
Exponentially growing cells (5,000 cells per well time; cell number determined with a hemocytometer) were seeded in 96-well flat-bottom plates and allowed to grow overnight. Cells were then incubated for 72 hours with three different concentrations of ECO-4601 or analogs: 30,10, and 3 μM. The in vitro growth inhibitory activity was determined by a commercial MTT assay. All measurements were done in quadruplicate and each experiment was performed 2-3 times. The lower the value, the more cytotoxic is the compound.

For data set [6], the system named is genes involved in steroid biosynthesis, cholesterol transport/metabolism, signal transduction and apoptosis. As to the kind of experiment: Gene expression in animals treated with Compound 1. Conditions: in vivo.
For data set [7] the following is noted: for MTD: mouse, in vivo.
For data set [8], the system named is MDA-MB-231 (mammary gland adenocarcinoma). Briefly: In vitro cytotoxic activity (GI50, propidium iodide), MDA-MB-231. The data set is classed as cell-based, human. The conditions noted are these: Homo sapiens, MDA-MB-231, 96 h, method (1), 96 hours. As for the experimental part: Procedures used for each series of tests are described below.
Compounds were dissolved at 10 mM in DMSO. […] The following day, propidium iodide was added to one of the two plates and fluorescence measured (Tz). […] Each compound was tested at each concentration and in triplicates. The equivalent cell number was determined after adding propidium iodide by measuring the signal by fluorescence (C for control).

T1 sequence (Q02750 whole entry): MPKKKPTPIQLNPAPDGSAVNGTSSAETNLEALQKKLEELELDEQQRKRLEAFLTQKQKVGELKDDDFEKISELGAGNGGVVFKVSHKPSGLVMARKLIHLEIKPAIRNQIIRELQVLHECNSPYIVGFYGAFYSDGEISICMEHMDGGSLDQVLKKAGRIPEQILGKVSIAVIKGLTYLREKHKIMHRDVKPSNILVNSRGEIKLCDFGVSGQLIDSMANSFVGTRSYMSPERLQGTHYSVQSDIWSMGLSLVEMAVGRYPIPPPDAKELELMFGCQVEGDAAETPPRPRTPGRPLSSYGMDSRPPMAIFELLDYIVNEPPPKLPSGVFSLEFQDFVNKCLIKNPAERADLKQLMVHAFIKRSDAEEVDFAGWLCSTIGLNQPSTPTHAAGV

For the compound `CC(C)=CCC/C(C)=C/CC/C(C)=C/CN1C(=O)c2cccc(O)c2Nc2c(O)cc(O)cc21` [Compound 1, 10-farnesyl-4,6,8-trihydroxy-5,10-dihydrodibenzo[b,e][1,4]diazepin-11-one], it took 3 ± 0.7 µM to reach half-maximal inhibition in data set [1] (IC50). Moreover, in data set [2], the “amount of total Raf-1” value is “decrease” and the “time to complete inhibition of protein phosphorylation” value was no more than 6 h. In data set [2] (MCF-7, MDA-MB-231, U 87-MG and PC-3 cells), the “inhibition of EGF-induced phosphorylation of Raf-1 and ERK1/2” value was “strong inhibition”. Also, the “direct inhibition of MEK1 kinase activity (in words)” value in data set [3] (0.5 μM and 5 μM) is recorded as “does not directly inhibit”. In addition, the activity at 0.5 µM in data set [3] (MEK1, 0.5 μM, % of enzyme activity over positive control, read-out: Kinase Activity (%) ± SD) was found to be 106 ± 2%. Besides, the activity at 5 µM in data set [3] (MEK1, 5 μM, % of enzyme activity over positive control, read-out: Kinase Activity (%) ± SD) was found to be 98 ± 1%. In addition, the T/C in data set [4] was found to be 56%. Further, the “% T/C at 10 μM” value in data set [5] was 100%. Besides, the “expression of several genes in treated animals” value in data set [6] is “increased expression”. In data set [7] (iv), the MTD was found to be 150 mg/kg.

Consider `CC(C)=CCC/C(C)=C/CC/C(C)=C/CN1C(=O)c2cccc(O)c2N(C)c2c(O)cc(O)cc21` [Compound 2, 10-farnesyl-4,6,8-trihydroxy-5-methyl-5,10-dihydro-dibenzo[b,e][1,4]diazepin-11-one], for which, in data set [7] (for several days post-injection), the weight losses entry was “about 7%”. Besides, the MTD in data set [7] (ip) is on record as no less than 50 mg/kg.

`CC(=O)Oc1cc(OC(C)=O)c2c(c1)N(CC=C(C)CCC=C(C)CCC=C(C)C)C(=O)c1cccc(O)c1N2` [Compound 9, 6,8-diacetoxy-10-farnesyl-4-hydroxy-5,10-dihydro-dibenzo[b,e][1,4]diazepin-11-one] displayed a GI50 in data set [8] of 2.48 µM. This counts as single-digit micromolar.

`CC(=O)Oc1cccc2c1Nc1c(OC(C)=O)cc(O)cc1N(CC=C(C)CCC=C(C)CCC=C(C)C)C2=O` [Compound 10, 4,6-diacetoxy-10-farnesyl-8-hydroxy-5,10-dihydro-dibenzo[b,e][1,4]diazepin-11-one] showed a GI50 in data set [8] of 1.55 µM.

Regarding `CC(=O)Oc1cc(O)c2c(c1)N(CC=C(C)CCC=C(C)CCC=C(C)C)C(=O)c1cccc(OC(C)=O)c1N2` [Compound 11, 4,8-diacetoxy-10-farnesyl-6-hydroxy-5,10-dihydro-dibenzo[b,e][1,4]diazepin-11-one], the concentration for 50% growth inhibition (GI50) in data set [8] turned out to be 7.72 µM.
